Measured values reported in ChEMBL document CHEMBL5120812, “Cytotoxic Nitrobenzoyl Sesquiterpenoids from an Antarctica Sponge-Derived Aspergillus insulicola” (J Nat Prod, 2022).
The source made the active and inactive calls. The calls are words filed in the database; no cut-off is given here.

Tests used:
PANC-1 [1] = assay: Cytotoxicity against human PANC-1 cells assessed as inhibition of cell growth incubated for 72 hrs by SRB assay; assay type: functional, cell-based; conditions: PANC-1, 72 h
PANC-1 [2] = assay: Induction of apoptosis in human PANC-1 cells assessed as viable cells at 5 uM incubated for 24 hrs by annexinV-FITC and PI staining based flow cytometry analysis (reference value: 89.5 %); assay type: functional; conditions: read-out: Activity
PANC-1 [3] = assay: Induction of apoptosis in human PANC-1 cells assessed as viable cells at 2.50 uM incubated for 24 hrs by annexinV-FITC and PI staining based flow cytometry analysis (reference value: 89.5 %); assay type: functional; conditions: read-out: Activity
PANC-1 [4] = assay: Induction of apoptosis in human PANC-1 cells assessed as viable cells at 1.25 uM incubated for 24 hrs by annexinV-FITC and PI staining based flow cytometry analysis (reference value: 89.5 %); assay type: functional; conditions: read-out: Activity
ASPC1 [5] = assay: Upregulation of PARP expression in human ASPC1 cells incubated for 24 hrs in presence of gemcitabine by Western blot analysis; assay type: functional, cell-based
ASPC1 [6] = assay: Cytotoxicity against human ASPC1 cells assessed as inhibition of cell growth incubated for 72 hrs by SRB assay; assay type: functional, cell-based; conditions: ASPC1, 72 h
MDA-MB-231 = assay: Cytotoxicity against human MDA-MB-231 cells assessed as inhibition of cell growth incubated for 72 hrs by SRB assay; assay type: functional, cell-based; conditions: MDA-MB-231, 72 h
BXPC-3 = assay: Cytotoxicity against human BXPC-3 cells assessed as inhibition of cell growth incubated for 72 hrs by SRB assay; assay type: functional, cell-based; conditions: BXPC-3, 72 h
ASPC1 [7] = assay: Cytotoxicity against human ASPC1 cells assessed as inhibition of cell proliferation at 0.94 to 30 uM by SRB assay; assay type: functional, cell-based; conditions: dose 0.94-30 µM, time 24-72 hrs, TDE = time-dependent effect
[8] = molecular target: Epidermal growth factor receptor (Homo sapiens) (UniProt P00533); assay: Inhibition of EGFR downstream signalling in human ASPC1 cells assessed as reduction of STAT3 phosphorylation upto 5 uM incubated for 24 hrs by Western blot analysis; assay type: cell-based
Sequence of Epidermal growth factor receptor (Homo sapiens) (P00533 whole entry): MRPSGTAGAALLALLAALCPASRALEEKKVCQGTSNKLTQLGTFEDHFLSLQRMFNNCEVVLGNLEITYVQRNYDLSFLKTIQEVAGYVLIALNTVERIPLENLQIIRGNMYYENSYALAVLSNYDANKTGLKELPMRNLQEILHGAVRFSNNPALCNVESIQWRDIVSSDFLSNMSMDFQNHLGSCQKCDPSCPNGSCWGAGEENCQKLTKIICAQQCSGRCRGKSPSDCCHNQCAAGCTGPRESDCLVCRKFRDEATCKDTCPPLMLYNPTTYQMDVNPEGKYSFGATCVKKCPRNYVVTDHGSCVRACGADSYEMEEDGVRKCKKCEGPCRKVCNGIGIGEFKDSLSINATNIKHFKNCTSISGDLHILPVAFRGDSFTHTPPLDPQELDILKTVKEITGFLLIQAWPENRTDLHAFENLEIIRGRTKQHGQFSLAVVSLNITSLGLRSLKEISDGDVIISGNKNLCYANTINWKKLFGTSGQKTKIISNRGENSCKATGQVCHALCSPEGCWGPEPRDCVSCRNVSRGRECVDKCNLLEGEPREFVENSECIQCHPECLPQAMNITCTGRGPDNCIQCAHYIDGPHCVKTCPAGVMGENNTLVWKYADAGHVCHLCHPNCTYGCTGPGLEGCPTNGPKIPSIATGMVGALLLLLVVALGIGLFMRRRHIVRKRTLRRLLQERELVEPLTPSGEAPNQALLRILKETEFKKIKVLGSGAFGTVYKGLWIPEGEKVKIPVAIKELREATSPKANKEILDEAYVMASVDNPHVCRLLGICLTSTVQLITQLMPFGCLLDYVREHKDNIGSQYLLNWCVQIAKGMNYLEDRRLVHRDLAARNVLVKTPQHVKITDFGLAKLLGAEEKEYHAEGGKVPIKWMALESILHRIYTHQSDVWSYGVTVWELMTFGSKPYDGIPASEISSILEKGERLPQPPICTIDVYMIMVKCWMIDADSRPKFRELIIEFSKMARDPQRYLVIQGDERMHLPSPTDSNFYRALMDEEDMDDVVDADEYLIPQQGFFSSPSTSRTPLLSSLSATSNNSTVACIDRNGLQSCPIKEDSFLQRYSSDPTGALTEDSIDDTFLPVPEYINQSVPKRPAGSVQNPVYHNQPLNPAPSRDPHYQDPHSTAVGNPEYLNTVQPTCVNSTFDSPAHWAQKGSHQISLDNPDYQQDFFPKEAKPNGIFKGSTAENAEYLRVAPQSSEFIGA

[9] = molecular target: Epidermal growth factor receptor (Homo sapiens) (UniProt P00533); assay: Inhibition of EGFR downstream signalling in human ASPC1 cells assessed as reduction of Akt phosphorylation upto 5 uM incubated for 24 hrs by Western blot analysis; assay type: cell-based
[10] = molecular target: Epidermal growth factor receptor (Homo sapiens) (UniProt P00533); assay: Inhibition of EGFR downstream signalling in human PANC-1 cells assessed as reduction of Akt phosphorylation upto 5 uM incubated for 24 hrs by Western blot analysis; assay type: cell-based
ASPC1 [11] = assay: Induction of apoptosis in human ASPC1 cells assessed as viable cells at 2.50 uM incubated for 24 hrs by annexinV-FITC and PI staining based flow cytometry analysis (reference value: 96.0 %); assay type: functional; conditions: read-out: Activity
ASPC1 [12] = assay: Induction of apoptosis in human ASPC1 cells assessed as viable cells at 5 uM incubated for 24 hrs by annexinV-FITC and PI staining based flow cytometry analysis (reference value: 96.0 %); assay type: functional; conditions: read-out: Activity
ASPC1 [13] = assay: Induction of apoptosis in human ASPC1 cells assessed as early apoptotic cells at 2.50 uM incubated for 24 hrs by annexinV-FITC and PI staining based flow cytometry analysis (reference value: 1.56 %); assay type: functional; conditions: dose 2.5 µM
ASPC1 [14] = assay: Induction of apoptosis in human ASPC1 cells assessed as late apoptotic cells at 1.25 uM incubated for 24 hrs by annexinV-FITC and PI staining based flow cytometry analysis (reference value: 2.18 %); assay type: functional
ASPC1 [15] = assay: Induction of apoptosis in human ASPC1 cells assessed as late apoptotic cells at 2.50 uM incubated for 24 hrs by annexinV-FITC and PI staining based flow cytometry analysis (reference value: 2.18 %); assay type: functional; conditions: dose 2.5 µM
ASPC1 [16] = assay: Induction of apoptosis in human ASPC1 cells assessed as necrotic cells at 1.25 uM incubated for 24 hrs by annexinV-FITC and PI staining based flow cytometry analysis (reference value: 0.27 %); assay type: functional
PANC-1 [17] = assay: Induction of apoptosis in human PANC-1 cells assessed as early apototic cells at 5 uM incubated for 24 hrs by annexinV-FITC and PI staining based flow cytometry analysis (reference value: 4.66 %); assay type: functional
PANC-1 [18] = assay: Induction of apoptosis in human PANC-1 cells assessed as necrotic cells at 5 uM incubated for 24 hrs by annexinV-FITC and PI staining based flow cytometry analysis (reference value: 0.14 %); assay type: functional
PANC-1 [19] = assay: Induction of apoptosis in human PANC-1 cells assessed as increase in cleaved caspase 3 level incubated for 24 hrs by Western blot analysis; assay type: functional, cell-based; conditions: dose 1.25-5 µM, DDE = dose-dependent effect
ASPC1 [20] = assay: Induction of apoptosis in human ASPC1 cells assessed as increase in cleaved caspase 9 level incubated for 24 hrs by Western blot analysis; assay type: functional, cell-based; conditions: dose 1.25-5 µM, DDE = dose-dependent effect
PANC-1 [21] = assay: Induction of apoptosis in human PANC-1 cells assessed as increase in cleaved caspase 9 level incubated for 24 hrs by Western blot analysis; assay type: functional, cell-based; conditions: dose 1.25-5 µM, DDE = dose-dependent effect
ASPC1 [22] = assay: Downregulation of survivin level in human ASPC1 cells upto 5 uM incubated for 24 hrs by Western blot analysis; assay type: functional, cell-based
PANC-1 [23] = assay: Downregulation of survivin level in human PANC-1 cells upto 5 uM incubated for 24 hrs by Western blot analysis; assay type: functional, cell-based
ASPC1 [24] = assay: Downregulation of Bcl-2 level in human ASPC1 cells upto 5 uM incubated for 24 hrs by Western blot analysis; assay type: functional, cell-based
PANC-1 [25] = assay: Downregulation of Bcl-2 level in human PANC-1 cells upto 5 uM incubated for 24 hrs by Western blot analysis; assay type: functional, cell-based
PANC-1 [26] = assay: Induction of apoptosis in human PANC-1 cells assessed as suppression of XIAP expression at upto 5 uM incubated for 24 hrs by Western blot analysis; assay type: functional, cell-based
ASPC1 [27] = assay: Inhibition of cell migration in human ASPC1 cells at 0.94 to 3.75 uM incubated for 24 hrs by wound healing assay; assay type: functional, cell-based; conditions: dose 0.94-3.75 µM
PANC-1 [28] = assay: Inhibition of cell migration in human PANC-1 cells at 0.94 to 3.75 uM incubated for 24 hrs by wound healing assay; assay type: functional, cell-based; conditions: dose 0.94-3.75 µM
ASPC1 [29] = assay: Cytotoxicity against human ASPC1 cells assessed as reduction in cell viability at 5 uM incubated for 24 hrs in presence of gemcitabine by SRB assay; assay type: functional, cell-based
PANC-1 [30] = assay: Cytotoxicity against human PANC-1 cells assessed as reduction in cell viability at 5 uM incubated for 24 hrs in presence of gemcitabine by SRB assay; assay type: functional, cell-based
ASPC1 [31] = assay: Upregulation of cleaved caspase 3 expression in human ASPC1 cells incubated for 24 hrs in presence of gemcitabine by Western blot analysis; assay type: functional, cell-based
PANC-1 [32] = assay: Upregulation of cleaved caspase 3 expression in human PANC-1 cells incubated for 24 hrs in presence of gemcitabine by Western blot analysis; assay type: functional, cell-based
PANC-1 [33] = assay: Upregulation of PARP expression in human PANC-1 cells incubated for 24 hrs in presence of gemcitabine by Western blot analysis; assay type: functional, cell-based
ASPC1 [34] = assay: Cytotoxicity against human ASPC1 cells assessed as inhibition of cell proliferation incubated for 24 to 72 hrs by SRB assay; assay type: functional, cell-based; conditions: dose 0.94-30 µM, time 24-72 hrs, DDE = dose-dependent effect
[35] = molecular target: Epidermal growth factor receptor (Homo sapiens) (UniProt P00533); assay: Inhibition of EGFR expression in human ASPC1 cells upto 5 uM incubated for 24 hrs by Western blot analysis; assay type: cell-based
[36] = molecular target: Epidermal growth factor receptor (Homo sapiens) (UniProt P00533); assay: Inhibition of EGFR expression in human PANC-1 cells upto 5 uM incubated for 24 hrs by Western blot analysis; assay type: cell-based

COC(=O)CCCCCCC/C=C/C(=O)OC[C@@]1(C)CCC[C@@]2(C)[C@H]1[C@H](OC(=O)c1ccc([N+](=O)[O-])cc1)C=C1C(=O)OC[C@@]12O
IC50 (PANC-1 [1]): 4.2 µM | viability at 5 µM (PANC-1 [2]): 69.6% | viability at 2.5 µM (PANC-1 [3]): 80.6% | viability at 1.25 µM (PANC-1 [4]): 90.7% | Activity (ASPC1 [5]): Active | IC50 (ASPC1 [6]): 2.3 µM | IC50 (MDA-MB-231): 22.9 µM | IC50 (BXPC-3): 4.88 µM | Activity (ASPC1 [7]): Tde | inhibition [8]: Active | inhibition [9]: Active | inhibition [10]: Active | viability at 2.5 µM (ASPC1 [11]): 87.7% | viability at 5 µM (ASPC1 [12]): 85.1% | Activity (ASPC1 [13]): 7.03% | Activity (ASPC1 [14]): 3.96% | Activity (ASPC1 [15]): 4.92% | Activity (ASPC1 [16]): 0.2% | Activity (PANC-1 [17]): 7.12% | Activity (PANC-1 [18]): 0.11% | Activity (PANC-1 [19]): Dde | Activity (ASPC1 [20]): Dde | Activity (PANC-1 [21]): Dde | Activity (ASPC1 [22]): Active | Activity (PANC-1 [23]): Active | Activity (ASPC1 [24]): Active | Activity (PANC-1 [25]): Active | Activity (PANC-1 [26]): Active | inhibition (ASPC1 [27]): Active | inhibition (PANC-1 [28]): Active | Activity (ASPC1 [29]): Active | Activity (PANC-1 [30]): Active | Activity (ASPC1 [31]): Active | Activity (PANC-1 [32]): Active | Activity (PANC-1 [33]): Active | Activity (ASPC1 [34]): Dde | inhibition [35]: Active | inhibition [36]: Active
